# Assay results: the supplement of paper PMC13380429
# ± gives the standard deviation of the averaged measurements.
# Assays:
# Details in all cases: 72 h
# Caco-2 [1] = assay: cell viability relative to DMSO; higher = less toxic
# Calu-3 [2] = assay: as above
# HepG2 [3] = assay: as above
# U2OS [4] = assay: as above
# Vero E6 [5] = assay: as above
# Caco-2 [6] = assay: relative viability EC50 (midpoint between 100% and the lowest measured viability); higher = less toxic
# Calu-3 [7] = assay: as above
# HepG2 [8] = assay: as above
# U2OS [9] = assay: as above
# Vero E6 [10] = assay: as above
# Caco-2 [11] = assay: drug sensitivity score (DSS) for viability; higher = more toxic; extreme values may be limits of the assay
# Calu-3 [12] = assay: as above
# HepG2 [13] = assay: as above
# U2OS [14] = assay: as above
# Vero E6 [15] = assay: as above
Structure (SMILES),cell viability (Caco-2 [1]; 1 nM) [%],cell viability (Caco-2 [1]; 10 nM) [%],cell viability (Caco-2 [1]; 100 nM) [%],cell viability (Caco-2 [1]; 1000 nM) [%],cell viability (Caco-2 [1]; 10000 nM) [%],cell viability (Calu-3 [2]; 1 nM) [%],cell viability (Calu-3 [2]; 10 nM) [%],cell viability (Calu-3 [2]; 100 nM) [%],cell viability (Calu-3 [2]; 1000 nM) [%],cell viability (Calu-3 [2]; 10000 nM) [%],cell viability (HepG2 [3]; 1 nM) [%],cell viability (HepG2 [3]; 10 nM) [%],cell viability (HepG2 [3]; 100 nM) [%],cell viability (HepG2 [3]; 1000 nM) [%],cell viability (HepG2 [3]; 10000 nM) [%],cell viability (U2OS [4]; 1 nM) [%],cell viability (U2OS [4]; 10 nM) [%],cell viability (U2OS [4]; 100 nM) [%],cell viability (U2OS [4]; 1000 nM) [%],cell viability (U2OS [4]; 10000 nM) [%],cell viability (Vero E6 [5]; 1 nM) [%],cell viability (Vero E6 [5]; 10 nM) [%],cell viability (Vero E6 [5]; 100 nM) [%],cell viability (Vero E6 [5]; 1000 nM) [%],cell viability (Vero E6 [5]; 10000 nM) [%],relative viability EC50 (Caco-2 [6]) [µM],relative viability EC50 (Calu-3 [7]) [µM],relative viability EC50 (HepG2 [8]) [µM],relative viability EC50 (U2OS [9]) [µM],relative viability EC50 (Vero E6 [10]) [µM],drug sensitivity score (Caco-2 [11]),drug sensitivity score (Calu-3 [12]),drug sensitivity score (HepG2 [13]),drug sensitivity score (U2OS [14]),drug sensitivity score (Vero E6 [15])
O=C(CCCCC(=O)Nc1c(I)cc(I)c(C(=O)O)c1I)Nc1c(I)cc(I)c(C(=O)O)c1I [iodipamide],106,106,97.1,95.3,102,98,104,93.6,101,101,96,93.3,97.6,101,103,96.2,103,97.7,95.1,97.9,102,99.2,101,98.6,103,> 10,> 10,> 10,> 10,> 10,0,0,0,0,0
C[C@H]1O[C@@H](O[C@H]2CC[C@@]3(C)[C@H](CC[C@@H]4[C@@H]3C[C@@H](O)[C@]3(C)[C@@H](C5=CC(=O)OC5)CC[C@]43O)C2)C[C@H](O)[C@@H]1O[C@H]1C[C@H](O)[C@H](O[C@H]2C[C@H](O)[C@H](O[C@@H]3O[C@H](CO)[C@@H](O)[C@H](O)[C@H]3O)[C@@H](C)O2)[C@@H](C)O1 [deslanoside],98.3,95,69.8,18.6,20,102,97.2,94.2,28.1,19.1,89.4,92.9,76.2,25.5,6.7,101,98.9,93.2,5.9,10.9,96.7,94.3,14.8,1.5,1,0.131,0.356,0.266,0.258,0.0401,18.5,14,16.7,18,28.7
COc1ccc(C2CNC(=O)C2)cc1OC1CCCC1 (stereo not given) [rolipram],95.2 ± 7.2,96.4 ± 2.8,97.7 ± 5.3,98.8 ± 7.4,110 ± 4.9,98.2 ± 12,97.6 ± 12,103 ± 5.5,98.4 ± 3.5,103 ± 1.6,102 ± 3.5,102 ± 6.4,101 ± 5.8,106 ± 5.5,101 ± 2.2,96.2 ± 1.5,97 ± 4.4,96.1 ± 2.3,99.1 ± 0.14,101 ± 2.9,93.6 ± 10,95.1 ± 8.9,94.4 ± 4.2,96.8 ± 4.5,102 ± 4.8,> 10,> 10,> 10,> 10,> 10,0,0,0,0,0.0667 ± 0.12
COc1ccc(CCC(=O)Nc2nc3ccc(Cl)cc3s2)cc1OC,102,94,95.9,92.1,85.4,102,94.9,92.7,91.7,89.3,96.5,110,96.3,98.3,98.1,101,94.7,98.5,95.1,96.3,101,96.9,97.3,101,95.2,> 10,> 10,> 10,> 10,> 10,0.3,0.1,0,0,0
Cc1coc2c1C(=O)C(=O)c1c-2ccc2c(C)cccc12 [tanshinone-I],93.1,97.4,104,90.7,86.2,93.8,91.7,104,110,100,91,104,89.4,111,105,97.8,97.8,103,93.9,95.2,91.9,94.9,90.7,96.5,104,> 10,> 10,> 10,> 10,> 10,0.7,0,0,0,0
CNCCCOc1cc(F)c(-c2c(Cl)nc3ncnn3c2N[C@@H](C)C(F)(F)F)c(F)c1 [cevipabulin],102,110,72.3,44.7,48.1,106,116,83.4,43.7,34.7,96.8,102,29.3,21.9,22.8,94.8,102,65.8,25.6,21,105,106,89.5,11.6,8.3,0.1,0.237,0.0431,0.121,0.241,13.7,12.5,22.9,18.1,17.9
O=C(O)c1cc(=O)c2ccccc2[nH]1 [kynurenic-acid],94.9,101,99.6,99.6,106,89.7,89.2,97.1,94.1,104,93.9,94.2,99.1,108,96,104,101,103,97,98.8,96.9,98.7,97.6,97.5,97.7,> 10,> 10,> 10,> 10,> 10,0,0,0,0,0
O=c1c(-c2ccc(O)cc2)coc2c([C@@H]3O[C@H](CO)[C@@H](O)[C@H](O)[C@H]3O)c(O)ccc12 [kakonein],122,104,108,106,96.3,104,99.3,111,102,95.5,95.7,97.7,84.6,99.6,93.5,99.2,95.1,99.3,95.2,97.9,98,103,99.1,95.3,91.8,> 10,> 10,> 10,> 10,> 10,0,0,0,0,0
NC[C@H]1O[C@H](O[C@H]2[C@H](O)[C@@H](O[C@H]3O[C@H](CO)[C@@H](O)[C@H](N)[C@H]3O)[C@H](N)C[C@@H]2N)[C@H](N)C[C@@H]1O [tobramycin],90.2,92.8,104,92.6,106,99.4,102,101,98.5,102,108,94.5,104,97.6,106,95,103,97.6,100,108,99.6,101,100,95.7,107,> 10,> 10,> 10,> 10,> 10,0,0,0,0,0
COc1cc(N)c(Cl)cc1C(=O)NC1CN2CCC1CC2 (stereo not given) [zacopride],101,97.6,97.6,95.7,110,96.9,100,97,85,95.3,107,99.5,102,100,109,92.5,96.3,96.7,98.3,92.2,98.9,92.8,97.9,97.4,106,> 10,> 10,> 10,> 10,> 10,0,0,0,0,0
C[N+](C)(C)[C@@H](Cc1c[nH]c(=S)[nH]1)C(=O)O [L-ergothioneine],100,101,114,105,97.3,97.2,97.7,95.2,108,95.4,83.4,88.9,102,98.8,80.4,96,94.1,98.2,92.4,95.6,94.3,94.9,96.5,109,106,> 10,> 10,> 10,> 10,> 10,0,0,0.7,0,0
O=C(CNC(=O)c1cccc(C(F)(F)F)c1)N[C@@H]1CCN(Cc2ccc(Cl)cc2)C1 [teijin-compound-1],113,108,106,98.8,78,95.9,98.8,95.9,94.4,91.5,108,110,107,92,83.8,95.7,98.5,95.6,99.7,91.1,109,102,100,98.1,94.8,> 10,> 10,> 10,> 10,> 10,0.9,0,1,0,0
Cn1cc(C2=C(c3cn(CCCSC(=N)N)c4ccccc34)C(=O)NC2=O)c2ccccc21 [bisindolylmaleimide-IX],100,97.7,101,94.9,25.3,112,96.4,100,91.2,18.1,98.6,104,105,96.8,5.1,105,100,106,103,5.7,91.7,101,89.3,92.6,15,2.61,2.28,2.92,3.32,2.45,4.9,6,5.7,5,5.9
